US20220387608A1, “ADRENOMEDULLIN-ANALOGUES FOR LONG-TERM STABILIZATION AND THEIR USE” (Bayer Aktiengesellschaft, priority 2019, published 2022)
Positions of bridges follow the written chain, without caps; N, C: chain ends. Non-standard residues stand in square brackets, D forms with d. Residues, ends and D or L forms follow the SMILES beside them. *: point of attachment. C18 diacid = O=C(O)CCCCCCCCCCCCCCCCC(=O)*; PEG4 = NCCOCCOCCOCCOCCC(=O)O; PEG3 = NCCOCCOCCOCCC(=O)O; Dap = NC[C@H](N)C(=O)O

Target: T1, AM1R (Homo sapiens, UniProt O60895+Q16602)
T1 construct: EYFP; ECFP; expressed in transfected cells; host or cells: HEK-293 (transient co-transfection)
Experiment: Activity determination in vitro: cAMP/CRE-luciferase reporter assay in HEK293 cells transiently co-transfected with CLR and RAMP2
Assay type: cell-based
Conditions: for Emax: HEK293, normalized to [G14]ADM(14-52); for EC50: HEK293 with CLR/RAMP2, CRE-luciferase, 3 h stimulation
Experimental: (1a) Activity Determination of Adrenomedullin Analogues in vitro
Cell Culture HEK-293 cells (human embryonic kidney cells) were cultured in Ham's F-12/DMEM (1/1; v/v) containing 15% FCS under humidified atmosphere at 37° C. and 5% CO2 in 75 cm^2 cell culture flasks.
Cells were cultured in 75 cm^2 flasks to 70-80% confluency. 45 μl Metafectene® Pro was diluted in 900 ρl Ham's F-12/DMEM (1/1; v/v) and incubated for 20 min at room temperature. 9 μg plasmid containing DNA of CLR fused to EYFP and 3 μg plasmid containing DNA of RAMP2 fused to ECFP were dissolved in 900 μl Ham's F-12/DMEM (1/1; v/v). The plasmid solution was mixed with the Metafectene® Pro solution and incubated for 25 min at room temperature. Medium was removed from the cells and replaced by 6 m1 Ham's F-12/DMEM (1/1; v/v) containing 15% FCS. After addition of transfection solution the cells were incubated for 3 h under humidified atmosphere at 37° C. and 5% CO2. For the second transfection 45 μl Metafectene® Pro was diluted in 900 μl Ham's F-12/DMEM (1/1; v/v) and incubated for 20 min at room temperature. 12 μg of pGL4.29[Luc2P/CRE/Hygro] plasmid containing DNA for the luciferase reporter gene luc2P (with CRE promotor region) were dissolved in 900 μl Ham's F-12/DMEM (1/1; v/v). The plasmid solution was mixed with the Metafectene® Pro solution and incubated for 25 min at room temperature. Medium was removed from the cells and replaced by 6 m1 Ham's F-12/DMEM (1/1; v/v) containing 15% FCS. After addition of transfection solution, the cells were incubated under humidified atmosphere at 37° C. and 5% CO2 over night.
For coating of 96-well-plates, 50 μl of a poly-D-lysine solution in DPBS (0.1 mg/ml) were pipetted in each well and incubated for 40 min. After removal of poly-D-lysine, each well was washed with 50 μl DPBS. Transiently transfected cells were detached from the cell culture flask by removal of the medium, 2-fold washing with 5 m1 DPBS and resuspending in 40 m1 Ham's F-12/DMEM (1/1; v/v) containing 15% FCS. 90,000 to 120,000 cells in 150 μl Ham's F-12/DMEM (1/1; v/v) containing 15% FCS were seeded per well and the plates were incubated under humidified atmosphere at 37° C. and 5% CO2 over night.
For each ligand, a serial dilution with eight different concentrations was prepared using Ham's F^12/DMEM (1/1; v/v). Before stimulation, the medium on the cells was replaced by 100 μl Ham's F^12/DMEM (1/1; v/v) and the plates were incubated for 1 h under humidified atmosphere at 37° C. and 5% CO2. For stimulation, the medium was removed and the cells were incubated for 3 h in 80 μl of ligand-solution under humidified atmosphere at 37° C. and 5% CO2. In addition 80 μl of a 5 μM forskolin solution in Ham's F-12/DMEM (1/1; v/v) was used as a positive control and 80 μl of Ham's F-12/DMEM (1/1; v/v) as a negative control. Each concentration and the controls were tested as triplicates.
After 3 h of stimulation, the solutions were removed and the cells were washed with 50 μl of Ham's F-12/DMEM (1/1; v/v) perwell. After 10 m incubation in 30 μl of Ham's F-12/DMEM (1/1; v/v) at room temperature, 30 μl of luciferase-solution (ONE-Glo™ Luciferase Assay System) was added and the luminescence was directly measured using an Infinite M200 (Tecan).
Data analysis of the luminescence measurement was carried out with GraphPad Prism 5. Therefore, the measured luminescence values of each plate were first corrected on the base of the respective average of forskolin stimulation. Afterwards they were normalized to [G14]ADM(14-52), which was used as standard peptide in every assay. After correction and normalization, data was analyzed using non-linear regression giving dose-response curves for each tested ligand.

T1 sequence (Q16602 23-461): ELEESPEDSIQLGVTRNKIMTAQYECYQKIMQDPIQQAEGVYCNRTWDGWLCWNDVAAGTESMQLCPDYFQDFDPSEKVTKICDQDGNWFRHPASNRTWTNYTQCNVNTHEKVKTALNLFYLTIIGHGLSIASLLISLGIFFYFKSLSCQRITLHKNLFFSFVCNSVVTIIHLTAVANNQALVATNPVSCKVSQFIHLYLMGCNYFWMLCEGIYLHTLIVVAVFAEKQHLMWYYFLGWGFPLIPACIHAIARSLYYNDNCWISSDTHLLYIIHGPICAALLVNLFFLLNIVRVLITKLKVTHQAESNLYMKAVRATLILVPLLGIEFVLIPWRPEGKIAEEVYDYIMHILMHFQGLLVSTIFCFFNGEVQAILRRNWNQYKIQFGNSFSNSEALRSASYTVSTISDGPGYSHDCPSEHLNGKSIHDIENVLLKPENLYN
T1 sequence (O60895 43-175): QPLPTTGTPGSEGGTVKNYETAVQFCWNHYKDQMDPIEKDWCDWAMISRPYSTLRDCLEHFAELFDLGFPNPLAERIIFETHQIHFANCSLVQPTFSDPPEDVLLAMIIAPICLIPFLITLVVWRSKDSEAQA

Emax [%]	EC50 [nM]	SMILES
95 ± 3	16	CC[C@H](C)[C@H](NC(=O)[C@H](CCC(N)=O)NC(=O)[C@H](Cc1c[nH]cn1)NC(=O)[C@H](C)NC(=O)[C@H](CC(C)C)NC(=O)[C@H](CCCCN)NC(=O)[C@H](CCC(N)=O)NC(=O)[C@@H](NC(=O)[C@@H](NC(=O)[C@@H]1CSSC[C@H](NC(=O)CNC(=O)CN)C(=O)N[C@@H](CCCNC(=N)N)C(=O)N[C@@H](Cc2ccccc2)C(=O)NCC(=O)N[C@@H]([C@@H](C)O)C(=O)N1)[C@@H](C)O)C(C)C)C(=O)N[C@@H](Cc1ccc(O)cc1)C(=O)N[C@@H](CCC(N)=O)C(=O)N[C@@H](Cc1ccccc1)C(=O)N[C@H](C(=O)NCCOCCOCCOCCOCCC(=O)N[C@@H](CC(N)=O)C(=O)N[C@H](C(=O)N[C@@H](C)C(=O)N1CCC[C@H]1C(=O)N[C@@H](CCCNC(=N)N)C(=O)N[C@@H](CO)C(=O)N[C@@H](CCCCN)C(=O)N[C@H](C(=O)N[C@@H](CO)C(=O)N1CCC[C@H]1C(=O)N[C@@H](CCC(N)=O)C(=O)NCC(=O)N[C@@H](Cc1ccc(O)cc1)C(N)=O)[C@@H](C)CC)C(C)C)[C@@H](C)O [Example 8, ((4R,7S,13S,16S,19R)-19-(2-(2-aminoacetamido)acetamido)-13-benzyl-16-(3-guanidinopropyl)-7-((R)-1-hydroxyethyl)-6,9,12,15,18-pentaoxo-1,2-dithia-5,8,11,14,17-pentaazacycloicosane-4-carbonyl)-L-threonyl-ADM(23-34)-(1-(λ^2-azaneyl)-3,6,9,12-tetraoxapentadecan-15-oyl)-L-asparagyl-ADM(41-52)] (H-GGCRFGTCTVQKLAHQIYQFT[PEG4]NVAPRSKISPQGY-NH2; disulfide 3-8)
100 ± 5	1.4	CC[C@H](C)[C@H](NC(=O)[C@H](CCC(N)=O)NC(=O)[C@H](Cc1c[nH]cn1)NC(=O)[C@H](C)NC(=O)[C@H](CC(C)C)NC(=O)[C@H](CCCCN)NC(=O)[C@H](CCC(N)=O)NC(=O)[C@@H](NC(=O)[C@@H](NC(=O)[C@@H]1CCC(=O)NC[C@H](NC(=O)CNC(=O)[C@@H](N)CCCCNC(=O)CCCCCCCCCCCCCCCCC(=O)O)C(=O)N[C@@H](CCCNC(=N)N)C(=O)N[C@@H](Cc2ccccc2)C(=O)NCC(=O)N[C@@H]([C@@H](C)O)C(=O)N1)[C@@H](C)O)C(C)C)C(=O)N[C@@H](Cc1ccc(O)cc1)C(=O)N[C@@H](CCC(N)=O)C(=O)N[C@@H](Cc1ccccc1)C(=O)N[C@H](C(=O)N[C@@H](CC(=O)O)C(=O)N[C@@H](CCCCN)C(=O)N[C@@H](CC(=O)O)C(=O)N[C@@H](CCCCN)C(=O)N[C@@H](CC(=O)O)C(=O)N[C@@H](CC(N)=O)C(=O)N[C@H](C(=O)N[C@@H](C)C(=O)N1CCC[C@H]1C(=O)N[C@H]1CCCCNC(=O)C[C@@H](C(=O)N2CCC[C@H]2C(=O)N[C@@H](CCC(N)=O)C(=O)NCC(=O)N[C@@H](Cc2ccc(O)cc2)C(N)=O)NC(=O)[C@H]([C@@H](C)CC)NC(=O)[C@H](CCCCN)NC(=O)[C@H](CO)NC1=O)C(C)C)[C@@H](C)O [Example 16] (H-K(C18 diacid)G[Dap]RFGTETVQKLAHQIYQFTDKDKDNVAPKSKIDPQGY-NH2; lactam 3-8, 31-35)
92 ± 5	6.6	CC[C@H](C)[C@H](NC(=O)[C@H](CCC(N)=O)NC(=O)[C@H](Cc1c[nH]cn1)NC(=O)[C@H](C)NC(=O)[C@H](CC(C)C)NC(=O)[C@H](CCCCN)NC(=O)[C@H](CCC(N)=O)NC(=O)[C@@H](NC(=O)[C@@H](NC(=O)[C@@H]1CSSC[C@H](NC(=O)CNC(=O)[C@@H](N)CCCCNC(=O)CCCCCCCCCCCCCCCCC(=O)O)C(=O)N[C@@H](CCCNC(=N)N)C(=O)N[C@@H](Cc2ccccc2)C(=O)NCC(=O)N[C@@H]([C@@H](C)O)C(=O)N1)[C@@H](C)O)C(C)C)C(=O)N[C@@H](Cc1ccc(O)cc1)C(=O)N[C@@H](CCC(N)=O)C(=O)N[C@@H](Cc1ccccc1)C(=O)N[C@H](C(=O)NCCOCCOCCOCCC(=O)N[C@@H](CC(=O)O)C(=O)N[C@@H](CC(N)=O)C(=O)N[C@H](C(=O)N[C@@H](C)C(=O)N1CCC[C@H]1C(=O)N[C@H]1CCCCNC(=O)C[C@@H](C(=O)N2CCC[C@H]2C(=O)N[C@@H](CCC(N)=O)C(=O)NCC(=O)N[C@@H](Cc2ccc(O)cc2)C(N)=O)NC(=O)[C@H]([C@@H](C)CC)NC(=O)[C@H](CCCCN)NC(=O)[C@H](CO)NC1=O)C(C)C)[C@@H](C)O [Example 14] (H-K(C18 diacid)GCRFGTCTVQKLAHQIYQFT[PEG3]DNVAPKSKIDPQGY-NH2; disulfide 3-8; lactam 28-32)
77 ± 3	81	CC[C@H](C)[C@H](NC(=O)[C@H](CCC(N)=O)NC(=O)[C@H](Cc1c[nH]cn1)NC(=O)[C@H](C)NC(=O)[C@H](CC(C)C)NC(=O)[C@H](CCCCN)NC(=O)[C@H](CCC(N)=O)NC(=O)[C@@H](NC(=O)[C@@H](NC(=O)[C@@H]1CSSC[C@H](NC(=O)CNC(=O)CN)C(=O)N[C@@H](CCCNC(=N)N)C(=O)N[C@@H](Cc2ccccc2)C(=O)NCC(=O)N[C@@H]([C@@H](C)O)C(=O)N1)[C@@H](C)O)C(C)C)C(=O)N[C@@H](Cc1ccc(O)cc1)C(=O)N[C@@H](CCC(N)=O)C(=O)N[C@@H](Cc1ccccc1)C(=O)N[C@H](C(=O)N[C@@H](CC(=O)O)C(=O)NCCOCCOCCOCCOCCC(=O)N[C@H](C(=O)N[C@@H](C)C(=O)N1CCC[C@H]1C(=O)N[C@@H](CCCNC(=N)N)C(=O)N[C@@H](CO)C(=O)N[C@@H](CCCCN)C(=O)N[C@H](C(=O)N[C@@H](CO)C(=O)N1CCC[C@H]1C(=O)N[C@@H](CCC(N)=O)C(=O)NCC(=O)N[C@@H](Cc1ccc(O)cc1)C(N)=O)[C@@H](C)CC)C(C)C)[C@@H](C)O [Example 10, ((4R,7S,13S,16S,19R)-19-(2-(2-aminoacetamido)acetamido)-13-benzyl-16-(3-guanidinopropyl)-7-((R)-1-hydroxyethyl)-6,9,12,15,18-pentaoxo-1,2-dithia-5,8,11,14,17-pentaazacycloicosane-4-carbonyl)-L-threonyl-ADM(23-35)-(1-(λ^2-azaneyl)-3,6,9,12-tetraoxapentadecan-15-oyl)-L-valyl-ADM(42-52)] (H-GGCRFGTCTVQKLAHQIYQFTD[PEG4]VAPRSKISPQGY-NH2; disulfide 3-8)
